Source: ChEMBL document CHEMBL2311504, “Inhibition of the human deacylase Sirtuin 5 by the indole GW5074” (Bioorg Med Chem Lett, 2013)
pIC50: −log10 of the molar value. The source made the active and inactive calls. The calls are words filed in the database; no cut-off is given here.

Key:
[1] = target: T1, NAD-dependent protein deacylase sirtuin-5, mitochondrial (Homo sapiens, UniProt Q9NXA8); assay: Inhibition of human Sirt5 desuccinylation activity using SKEYFS-succinylLys-QK as substrate at 100 uM after 60 mins by glutamate dehydrpgenase-coupled assay
Target sequence in this assay (Q9NXA8 37-310 limits assumed): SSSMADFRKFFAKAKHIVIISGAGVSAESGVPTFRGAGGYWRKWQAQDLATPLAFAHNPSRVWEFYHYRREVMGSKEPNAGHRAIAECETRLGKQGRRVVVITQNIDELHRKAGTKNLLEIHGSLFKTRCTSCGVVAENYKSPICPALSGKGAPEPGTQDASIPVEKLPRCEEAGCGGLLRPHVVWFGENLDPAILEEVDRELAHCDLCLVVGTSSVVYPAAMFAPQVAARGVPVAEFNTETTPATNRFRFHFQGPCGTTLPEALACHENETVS

[2] = target: T1, NAD-dependent protein deacylase sirtuin-5, mitochondrial; assay: Inhibition of human Sirt5 deacetylation activity using FKRGVL-acetylLys-EYGVKV as substrate at 100 uM after 60 mins by glutamate dehydrogenase-coupled assay
Target sequence in this assay (Q9NXA8 37-310 limits assumed): as above

[3] = target: T1, NAD-dependent protein deacylase sirtuin-5, mitochondrial; assay: Inhibition of human Sirt5 desuccinylation activity using SKEYFS-succinylLys-QK as substrate assessed as activity remaining at 100 µM measured for 20 mins by MS analysis
Target sequence in this assay (Q9NXA8 37-310 limits assumed): as above

[4] = target: T1, NAD-dependent protein deacylase sirtuin-5, mitochondrial; assay: Inhibition of human Sirt5 desuccinylation activity using SKEYFS-succinylLys-QK as substrate measured for 15 mins by MS analysis
Target sequence in this assay (Q9NXA8 whole entry): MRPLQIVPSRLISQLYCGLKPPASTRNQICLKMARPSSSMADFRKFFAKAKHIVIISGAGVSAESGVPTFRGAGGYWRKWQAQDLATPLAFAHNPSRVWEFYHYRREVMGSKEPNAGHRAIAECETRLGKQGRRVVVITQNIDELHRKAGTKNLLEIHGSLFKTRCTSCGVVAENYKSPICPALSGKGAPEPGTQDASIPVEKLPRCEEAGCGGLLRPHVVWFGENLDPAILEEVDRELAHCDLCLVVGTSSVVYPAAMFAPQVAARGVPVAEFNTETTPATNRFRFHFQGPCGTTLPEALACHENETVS

[5] = target: T1, NAD-dependent protein deacylase sirtuin-5, mitochondrial; assay: Inhibition of human Sirt5 deacetylation activity using FKRGVL-acetylLys-EYGVKV as substrate assessed as activity remaining at 100 µM measured for 20 mins by MS analysis
Target sequence in this assay (Q9NXA8 37-310 limits assumed): as the sequence (Q9NXA8 37-310 limits assumed) above

[6] = target: T1, NAD-dependent protein deacylase sirtuin-5, mitochondrial; assay: Inhibition of human Sirt5 deacetylation activity using FKRGVL-acetylLys-EYGVKV as substrate measured for 15 mins by MS analysis
Target sequence in this assay (Q9NXA8 whole entry): as the sequence (Q9NXA8 whole entry) above

[7] = target: T1, NAD-dependent protein deacylase sirtuin-5, mitochondrial; assay: Selectivity ratio of IC50 for human Sirt5 deacetylation activity to IC50 for human Sirt5 desuccinylation activity
Target sequence in this assay (Q9NXA8 37-310 limits assumed): as the sequence (Q9NXA8 37-310 limits assumed) above

[8] = target: T1, NAD-dependent protein deacylase sirtuin-5, mitochondrial; assay: Inhibition of human Sirt5 deacetylation activity using SKEYFS-acetylLys-QK as substrate measured for 15 mins by MS analysis
Target sequence in this assay (Q9NXA8 whole entry): as the sequence (Q9NXA8 whole entry) above

| Compound | inhibition [1] | inhibition [2] | other results |
| --- | --- | --- | --- |
| N#C/C(=C\c1ccc(-c2cc(Cl)ccc2Cl)o1)C(=O)Nc1cccc2ncccc12 | inactive | inactive | – |
| CC(NC(=O)c1ccccc1/N=C/c1c(O)ccc2ccccc12)c1ccccc1 (stereo not given) | inactive | inactive | – |
| O=C(Nc1ccccc1-c1cn2c(CN3CCNCC3)csc2n1)c1cnc2ccccc2n1 | inactive | inactive | – |
| O=C1Nc2ccc(I)cc2C1=Cc1cc(Br)c(O)c(Br)c1 [GW305074X] | – | – | Activity [3]: 15%; pIC50 [4]: 4.71; Activity [5]: 30%; pIC50 [6]: 4.01; Ratio IC50 [7]: 4; pIC50 [8]: 3.70 |
| CC(C(=O)Nc1cccc(/N=C/c2c(O)ccc3ccccc23)c1)c1ccccc1 (stereo not given) | 20% | inactive | – |
| O=C1Oc2ccc3cc(Br)ccc3c2CC1c1ccccc1 (stereo not given) | inactive | inactive | – |
| NC(=O)C1CCCc2c1[nH]c1ccc(Cl)cc21 (stereo not given) | inactive | inactive | – |
| Cc1ccc(C(=O)Nc2ccc(S(=O)(=O)O)c3cc(S(=O)(=O)O)cc(S(=O)(=O)O)c23)cc1NC(=O)c1cccc(NC(=O)Nc2cccc(C(=O)Nc3cc(C(=O)Nc4ccc(S(=O)(=O)O)c5cc(S(=O)(=O)O)cc(S(=O)(=O)O)c45)ccc3C)c2)c1 | 20% | Active | – |
